Broadly, the AC50 is the concentration at which the activity in the assay is half-maximal.

Records with an inconclusive call do not appear. Activity calls are given as the source filed them. How the calls were made is not given here.

Chain of Zinc finger protein mex-5 (Caenorhabditis elegans) (Q9XUB2 whole entry, looked up): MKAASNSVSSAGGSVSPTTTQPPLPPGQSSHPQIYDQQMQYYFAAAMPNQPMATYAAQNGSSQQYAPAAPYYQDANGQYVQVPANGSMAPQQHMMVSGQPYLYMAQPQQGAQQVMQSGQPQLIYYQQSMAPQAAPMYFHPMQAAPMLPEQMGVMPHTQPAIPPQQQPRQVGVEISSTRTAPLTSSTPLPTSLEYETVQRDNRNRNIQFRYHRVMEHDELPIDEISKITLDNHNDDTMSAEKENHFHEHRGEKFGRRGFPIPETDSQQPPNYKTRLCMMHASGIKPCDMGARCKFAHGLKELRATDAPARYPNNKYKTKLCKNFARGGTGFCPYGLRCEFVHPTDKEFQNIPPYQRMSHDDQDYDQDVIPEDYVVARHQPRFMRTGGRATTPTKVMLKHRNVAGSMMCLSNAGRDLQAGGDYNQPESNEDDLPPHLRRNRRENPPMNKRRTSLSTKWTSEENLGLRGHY

This assay has as its target Zinc finger protein mex-5 (Caenorhabditis elegans) (UniProt Q9XUB2). Description: retest of MEX-5 TCR-2 binding inhibitors, confirmation, biochemical, C. elegans, fluorescence polarization, dose retest (AID 449745).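 Further: potency is for blocking Mex-5 binding to labeled TCR2 RNA like unlabeled competitor.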 Particulars: Mex-5 / TCR-2 RNA binding. A general note: Fluorescence polarisation rises when a labelled molecule tumbles more slowly, as on binding a larger partner.
As for `O=C(O)C1Nc2c(Cl)cc(Cl)cc2C2C=CCC12` (stereo not drawn), the AC50 is 33.2 µM. As for `Cc1ccccc1Nc1cc2ccccc2c(=O)[nH]1`, the concentration at half-maximal activity (AC50) is 14.3 µM. With `CCCCOc1ccc(-c2cc(C(F)(F)F)c(C#N)c(SCC(=O)O)n2)cc1`, the concentration at half-maximal activity (AC50) was 11.8 µM.

With `CCn1c(SCc2nc3sc(C(=O)O)c(C)c3c(=O)[nH]2)nc2ccccc21`, the half-maximal activity concentration (AC50) is 13 µM. As to `CCN1CCc2c(sc(N)c2C(N)=O)C1`, the AC50 is 37.4 µM. For the compound `Cc1[nH][nH]c(=O)c1C(c1ccc(O)c([N+](=O)[O-])c1)c1c(C)[nH][nH]c1=O`, the half-maximal activity concentration (AC50) is 8.52 µM.

Regarding `Cn1c(O)c(/C=N/NC(=O)c2cc3ccccc3cc2O)c2ccccc21`, the AC50 was 5.01 µM.

With `O=C(CN1C(=O)/C(=C/c2cccc(Br)c2)SC1=S)NC1=NCCS1`, the AC50 is > 38 µM (inactive). The same measure for `NC1=NC(=O)/C(=C\C=C\c2ccccc2)S1`: > 38 µM (inactive); for `O=C(c1nc2ccc(Cl)cn2c1CN1CCCC1)N1CCc2ccccc2C1`: 23.7 µM. The same measure for `CCc1cccc2cc3c(N)c(C(=O)Nc4ccc(S(=O)(=O)N5CCCC5)cc4)sc3nc12`: 8.06 µM. Take `Oc1sc(C=Nc2ccc(F)cc2)c2ccccc12`: the AC50 is 22.2 µM. The result for `Oc1ccc(Br)cc1C=Nc1cccn2cc(-c3ccccc3)nc12` reads > 38 µM (inactive); that for `N#C/C(=C\c1cccc([N+](=O)[O-])c1)c1nnc2n1CCCCC2`, > 38 µM (inactive). In the case of `CC(C(=O)Nc1ccc(C(=O)O)c(O)c1)N1C(=O)/C(=C\c2ccco2)SC1=S` (stereo not drawn), the AC50 is 19 µM. For `CC(C)C1Nc2ccc(C(=O)O)cc2C2C=CCC21` (stereo not drawn), the AC50 is > 38 µM (inactive). The same measure for `COCCCNC(=O)c1ccc2c3c(onc13)-c1ccccc1C2=O`: less than 0.3 µM. Take `CC1=NOC(=O)/C1=C/c1ccc2c(c1)OCO2`: the AC50 is > 38 µM (inactive). The result for `COc1cc(OC)c(OC)cc1/C=C1/Cc2ccccc2C1=O` reads 8.04 µM; that for `COc1ccc(C(=O)c2c(N)sc3c2CCN(C)C3)cc1`, > 38 µM (inactive); that for `C=C1c2cccc(O)c2C(O)=C2C(=O)[C@]3(O)C(O)=C(C(N)=O)C(=O)[C@@H](N(C)C)[C@@H]3[C@@H](O)[C@H]12`, 17.7 µM. Take `CC1=NN2C(=N)/C(=C\c3ccc(SCc4ccccc4)o3)C(=O)N=C2S1`: the AC50 is 38 µM. Consider `Cc1ccc(S(=O)(=O)N/N=C/c2ccc(O)c(O)c2)cc1[N+](=O)[O-]`, for which the AC50 is 27 µM. On to `CC1CC(=O)c2c(cc3c(-c4c(O)cc(O)c5c(O)c6c(cc45)OC(C)CC6=O)c(O)cc(O)c3c2O)O1` (stereo not drawn), for which the AC50 is 2.07 µM. The same measure for `COc1cc(/C=C2/C(=O)NN(c3ccc(Cl)c(Cl)c3)C2=O)cc([N+](=O)[O-])c1O`: 31.6 µM. Regarding `COc1ccc(N=C2S/C(=C\c3cc(C)n(C)c3C)C(=O)N2C)cc1`, the AC50 is > 38 µM (inactive). As to `Cc1cc[n+](-c2[nH]c(=O)sc2/C=N/NC([S-])=Nc2ccccc2)cc1`, the half-maximal activity concentration (AC50) is 4.83 µM. The result for `N#Cc1c(C#N)c(O)c2ccccc2c1O` reads 11.3 µM.

For `O=C(NNc1ncnc2c1cnn2-c1ccc(F)cc1)c1ccco1`, the concentration at half-maximal activity (AC50) was 15.9 µM. `CSc1nc(N)c(N=Nc2ccc([As](=O)(O)O)cc2)c(=O)[nH]1`: the concentration at half-maximal activity (AC50) was 17.7 µM.

Turning to `COc1ccc(N/C=C/C(=O)c2ccc3c(c2)OCO3)cc1OC`, the AC50 is > 38 µM (inactive). Regarding `Oc1ccc(N=Nc2n[nH]c(-c3ccccc3)n2)cc1`, the AC50 is 4.21 µM. Turning to `Cc1cc2ccccc2n1CCNC(=O)c1ccc(Br)o1`, the AC50 is > 38 µM (inactive). The result for `OC(CNC1CCCC1)COc1ccccc1Br` (stereo not drawn) reads > 38 µM (inactive). The result for `Cc1nn(C)cc1C(=O)NNC(=S)Nc1ccccc1` reads 19.5 µM. Consider `Cc1ccc(NC(=O)/C(C#N)=C(\N)C(Cl)(Cl)Cl)nc1`, for which the half-maximal activity concentration (AC50) is 8.19 µM.

For `Cc1cccc(N=Nc2c(O)[nH]c3ccc(F)cc23)c1`, the concentration at half-maximal activity (AC50) is 4.46 µM. The result for `COc1ccc2c(c1)NP(=S)(Oc1ccccc1)N2` (stereo not drawn) reads 12.8 µM; that for `CCOC(=O)c1c(NS(=O)(=O)c2ccccc2)n(CCCOC)c2nc3ccccc3nc12`, > 38 µM (inactive); that for `Cc1ccc(O)c(C(=O)c2cc(C#N)c(=O)n(-c3nccs3)c2)c1`, 14.2 µM. The same measure for `CCn1c(CSc2nnc3ccccn23)nc2cc(C(=O)O)ccc21`: 33.9 µM; for `COc1ccc(N(C(=O)CCl)C(C)(C(=O)Nc2c(C)cccc2C)c2ccccn2)cc1` (stereo not drawn): > 38 µM (inactive). The result for `CCOc1ccc2nc(N3CCCN(C(=O)Nc4ccccc4C)CC3)c(C#N)cc2c1` reads 22.8 µM. On to `CCCCOc1ccc2c(c1)/C(=C(\C(Cl)=C(Cl)Cl)[N+](=O)[O-])N2`, for which the AC50 was 14.2 µM.

As to `CCCCCCc1cc2cc(C(=O)NC)c(=N)oc2cc1O`, the concentration at half-maximal activity (AC50) is 6.09 µM.

Turning to `COc1cc(N2CCCC2)c(OC)cc1/C=C(/C#N)c1cccc(Br)c1`, the AC50 is 10.3 µM.

`Cc1ccc(C(=O)O)cc1N1C(=O)c2cccc3c([N+](=O)[O-])ccc(c23)C1=O`: the AC50 was 25.6 µM. The same measure for `CCOC(=O)NNc1ccc2nonc2c1[N+](=O)[O-]`: > 38 µM (inactive).

As for `CCNC(=S)N/N=C/c1sc(N2CCCCC2)nc1-c1cccs1`, the AC50 was 10 µM. Turning to `O=[N+]([O-])c1ccc(O)c(C=Nc2ccc3c(c2)OCCO3)c1`, the AC50 is > 38 µM (inactive). For `CCc1nnc(NC(=O)CCN2C(=O)/C(=C/c3cc(OC)c(OC)c(OC)c3)SC2=S)s1`, the AC50 is > 38 µM (inactive). Consider `O=C(c1nc2ccc(Cl)cn2c1CN1CCC[C@H]1CO)N1CCCCCCC1`, for which the AC50 was 27.3 µM. The result for `O=c1c2ccccc2nc(/C=C/c2ccc([N+](=O)[O-])o2)n1-c1ccc(O)cc1` reads > 38 µM (inactive); that for `O=C(NNC(=O)c1ccccc1O)c1ccc(S(=O)(=O)Nc2ccccc2)cc1`, 11.4 µM; that for `COc1cc2c(cc1N/C=C(\C#N)c1nc(-c3ccc(F)cc3)cs1)oc1ccccc12`, > 38 µM (inactive).

`Cc1ccc(O)c(N=CC2=C(O)c3ccccc3C2=O)c1`: the concentration at half-maximal activity (AC50) was 24.8 µM. For `COc1cccc(NC(=O)CSc2nc3ccccc3nc2N2CCOCC2)c1`, the AC50 is > 38 µM (inactive). The result for `O=C1NC(=O)/C(=C\c2ccc(O)cc2O)S1` reads 11.5 µM; that for `N#CC1=C(N)N2C(=C(C#N)C1c1ccccc1)Sc1ccccc12` (stereo not drawn), 5.23 µM; that for `N#CC(C#N)=NNc1ccc(S(N)(=O)=O)cc1`, 7.56 µM. For the compound `CC1(C)CC2(CC(c3ccccc3F)c3ccc(O)c(O)c3O2)NC(=S)N1` (stereo not drawn), the AC50 was 0.638 µM. The same measure for `COc1ncnc2c1N=C1CC(C)(C)CC(N)=C1S2`: 19.6 µM; for `Cc1cc(=O)n2[nH]c(=O)c(N=Nc3ccccc3)c2[nH]1`: less than 0.3 µM. The result for `COc1ccc2ccccc2c1CNCc1ccccn1` reads > 38 µM (inactive); that for `O=C(O)c1cc(-c2ccc(/C=c3\sc4nc5ccc(Br)cc5n4c3=O)o2)ccc1Cl`, 5.15 µM. Take `CCc1cc[n+](-c2nc3ccccc3nc2[N-]S(=O)(=O)c2ccc(Br)s2)cc1`: the AC50 was 4.86 µM. On to `O=C1c2cccc3c(Cl)ccc(c23)C(=O)N1O`, for which the AC50 is 26.2 µM. The same measure for `CN(C)C1C(=O)C(C(N)=O)=C(O)C2(O)C(=O)C3=C(O)c4c(O)cccc4C(C)(O)C3CC12` (stereo not drawn): > 38 µM (inactive); for `COc1cc(CCC(=O)Nc2ccc(Cl)c(C(F)(F)F)c2)cc(OC)c1OC`: > 38 µM (inactive); for `Cc1nnc(SCc2nc3sc4c(c3c(=O)[nH]2)CCCC4)n(N)c1=O`: > 38 µM (inactive). The result for `COc1ccc(/C=C2\SC(=O)NC2=S)cc1OC` reads 20 µM; that for `Nc1ccc(N(CCO)CCO)cc1`, > 38 µM (inactive); that for `COc1ccc(Cn2c3ccc(OC)cc3c3nc4ccccc4nc32)cc1`, 22.9 µM. The same measure for `CN(C)c1ccc(/C=C/c2nc3ccccc3c(=O)[nH]2)cc1`: > 38 µM (inactive); for `CN(C)c1ccc(C(c2nnnn2CCOC(=O)Nc2ccc(Cl)cc2)N2CCOCC2)cc1` (stereo not drawn): > 38 µM (inactive).

Regarding `CN(C)[C@@H]1C(=O)C(C(N)=O)=C(O)[C@@]2(O)C(=O)C3=C(O)c4c(O)cccc4[C@@](C)(O)[C@H]3[C@H](O)[C@@H]12`, the AC50 is 12 µM. `NC(=S)N/N=C/c1cccc(O)c1O`: the concentration at half-maximal activity (AC50) was 21.2 µM.

With `COCC1CCN(Cc2c(C(=O)N3CCc4ccccc4C3)nc3ccc(Cl)cn23)C1` (stereo not drawn), the half-maximal activity concentration (AC50) is 21.5 µM. With `CC(=O)Nc1ccc(N2C(=O)c3cccc4c(O)ccc(c34)C2=O)cc1`, the concentration at half-maximal activity (AC50) is 3.81 µM. The result for `COc1ccc(C(=O)C/C(=C\C(=O)c2ccc(C)cc2)c2ccccc2)cc1` reads > 38 µM (inactive); that for `Cc1cc(C)c2c(c1)NC(C(=O)O)C1CC=CC21` (stereo not drawn), 13.3 µM; that for `CCOC(=O)C1=C(C)N=c2s/c(=C\c3cccn3C)c(=O)n2C1c1cccc(OC)c1OC` (stereo not drawn), 13.8 µM. The result for `CCOc1ccc(/C=C/C(=O)c2c(O)c3ccccc3oc2=O)cc1` reads > 38 µM (inactive); that for `CCOc1ccc(-c2c(C#N)c(N)nc3sc(C(=O)c4ccccc4)c(N)c23)cc1`, 35.5 µM. For `Cc1c(C(=O)NNC(=S)Nc2ccc(S(N)(=O)=O)cc2)oc2ccccc12`, the AC50 was 12.1 µM. The same measure for `CC1(C)CC(=O)C2=C(C1)OC(N)=C(C#N)C2c1ccccc1[N+](=O)[O-]` (stereo not drawn): > 38 µM (inactive); for `Cc1nnc(N2C(=O)C(O)=C(C(=O)c3ccco3)C2c2ccc(C(C)C)cc2)s1` (stereo not drawn): 37.2 µM; for `Cn1nc([N+](=O)[O-])c(C(C#N)c2nc3ccccc3n2C)c(Cl)c1=O` (stereo not drawn): 22.9 µM. Consider `Cc1nc2ccc3nc(NC(=O)c4ccc5c(c4)OCCO5)sc3c2s1`, for which the AC50 was > 38 µM (inactive).

As for `O=C1CCCC(O)=C1N=Nc1ccc(C(=O)O)cc1`, the AC50 was 32.9 µM.

In the case of `COC(=O)COc1ccc(C2Nc3c(Cl)ccc(C(=O)O)c3C3C=CCC32)cc1` (stereo not drawn), the AC50 was > 38 µM (inactive). The result for `CN1C(=O)/C(=C/c2ccco2)SC1=Nc1cccc(C(=O)O)c1` reads > 38 µM (inactive). The same measure for `O=C1c2ccccc2C(=O)N1/N=C/c1ccc(O)c(O)c1O`: 0.798 µM.

Source of the values: PubChem BioAssay AID449745 (Broad Institute, 2010).
